Legend:
[1] = test system: HCV; settings: ribavirin alone; cited from earlier work
[2] = test system: BVDV strain I-N-dIns (wild type); assay: microbe, parasite or virus in culture; format: cell-based, bovine viral diarrhea virus
Protocol: (§1) To conduct the virus focus assay, MDBK cells were seeded onto 6-well plates containing 2×10^5 cells per well and grown at 37° C./5% CO2 for at least 5 hours before use. The test samples (culture supernatants combined with cell monolayers) were frozen/thawed twice, serially diluted by 10-fold in medium, and used to inoculate test cells in 6-well plates at 0.2 mL per well. The inoculum was removed after 1 hour of adsorption, and the cells were overlaid with 3 mL of 0.5% agarose in complete growth medium (1× DMEM (Cellgro), supplemented with 8% horse serum, penicillin, streptomycin, L-glutamine, sodium pyruvate, and 25 mM HEPES). After 3 days of incubation at 37° C./5% CO2, the plates were fixed for 1 hour with 3 mL of 7.4% formaldehyde in PBS, and washed with PBS. The cell monolayers were permeabilized with 1 mL of PBS-0.25% Triton X-100 per well for 10 minutes, and incubated with 0.5 mL of goat anti-BVDV antiserum (VMDR, Inc.; diluted 1:1000 in PBS-0.25% Triton X-100) for 1 hour. The antiserum was then removed, and cell monolayers were washed with PBS (twice for 15 min) and incubated with 0.5 mL of peroxidase-conjugated donkey anti-goat antibody (diluted 1:1000 in PBS-0.25% Triton X-100) for another 1 hour. After the antibody was removed, the cell monolayers were washed with PBS (twice for 15 min), and incubated with 0.5 mL of diaminobenzidine (DAB) peroxidase substrate solution (Vector Laboratories) at room temperature until virus foci become visible (approximately 15 minutes). All incubations were carried out with rocking. The staining was stopped by washing with water and the plates were allowed to air dry. Virus titers were calculated in FFU/mL, using the following equation: TFFU/mL=N×5×D; where T is a virus titer in FFU/mL; N is a number of foci per well; and D is a dilution factor for the corresponding virus sample.
(§2) To conduct the virus yield reduction assay, MDBK cells were seeded onto 24-well plates (1×10^5 cells per well) and grown at 37° C./5% CO2 overnight. […] The virus titer in the cell culture was quantified by focus assay as described above. […]

[3] = test system: BVDV I-N-dIns β-D-2′-CH3-riboC-R (β-D-2′-CH3-riboC-resistant BVDV); assay: BVDV virus yield reduction assay in de novo-infected MDBK cells; format: cell-based, bovine viral diarrhea virus
Protocol: as §1
To conduct the virus yield reduction assay, MDBK cells were seeded onto 24-well plates (1×10^5 cells per well) and grown at 37° C./5% CO2 overnight. Cells were infected with BVDV at a multiplicity of infection of 0.1. After 1-hour adsorption, the inoculum was removed, and cells were washed with PBS and then overlaid with 1 mL of fresh growth medium, containing serial 2-fold dilutions of the test compound (0-32 μM for β-D-2′-CH3-riboC and 0-800 IU/mL for Intron®A). After incubation at 37° C./5% CO2 for 48 hours, the plates were frozen/thawed at −70° C. twice to lyse the cell cultures. The virus titer in the cell culture was quantified by focus assay as described above. […] The EC50, EC90 and EC4-log values were derived by curve fitting using XLFit software.

[4] = test system: BVDV strain I-NADL; assay: BVDV virus yield reduction assay; format: cell-based, bovine viral diarrhea virus; settings: cp
Protocol: as §1, with “sample. […]” for “sample.”
as §2

[5] = test system: BVDV (strain I-N-dIns) in persistently infected MDBK cells; assay: Passaging of persistently infected MDBK cells with 8 μM β-D-2′-CH3-riboC (isolation of resistant BVDV); format: cell-based, bovine viral diarrhea virus
Protocol: (§3) Persistent BVDV infection was established in MDBK cell line (ATCC, Manassas, Va., Catalog #: CCL-22) by in vitro infection of naive cells with a noncytophatic (ncp) BVDV (strain I-N-dIns; Dr. R. Donis, U. of Nebraska, Lincoln, Nebr.). The multiplicity of infection (MOI) was 0.01. Cells were passaged twice per week (splitting ratio 1:15) until the stable high-level of infection (10^6-10^7 focus forming units (FFU) per mL) was achieved, as was determined by a focus assay. Next, the persistently infected cells were grown in 6-well culture plates with 8 μM or without β-D-2′-CH3-riboC (Idenix Pharmaceuticals). Cell cultures were passaged every three to four days by splitting with a ratio of 1:15 to 1:20. After eight passages, cell cultures grown in the presence of β-D-2′-CH3-riboC were expanded to T-75 culture flask, freeze/thawed twice, and used as a virus stock of β-D-2′-CH3-riboC-resistant BVDV for further characterization. The virus titers in cell cultures were monitored at the end of each passage by the virus focus assay.
To conduct the virus focus assay, MDBK cells were seeded onto 6-well plates containing 2×10^5 cells per well and grown at 37° C./5% CO2 for at least 5 hours before use. The test samples (culture supernatants combined with cell monolayers) were frozen/thawed twice, serially diluted by 10-fold in medium, and used to inoculate test cells in 6-well plates at 0.2 mL per well. The inoculum was removed after 1 hour of adsorption, and the cells were overlaid with 3 mL of 0.5% agarose in complete growth medium (1× DMEM (Cellgro), supplemented with 8% horse serum, penicillin, streptomycin, L-glutamine, sodium pyruvate, and 25 mM HEPES). After 3 days of incubation at 37° C./5% CO2, the plates were fixed for 1 hour with 3 mL of 7.4% formaldehyde in PBS, and washed with PBS. […] Virus titers were calculated in FFU/mL, using the following equation: TFFU/mL=N×5×D; where T is a virus titer in FFU/mL; N is a number of foci per well; and D is a dilution factor for the corresponding virus sample. […]

[6] = test system: BVDV (strain I-N-dIns) in persistently infected MDBK cells; assay: Single or double treatment of persistently infected MDBK cells, virus titers by focus assay; format: cell-based, bovine viral diarrhea virus; settings: for log value of the BVDV titer: 0 IU/mL Interferon alpha-2b; for reduction of viral titers: single treatment, 7 days
Protocol: as §3, with “After eight passages, cell cultures grown in the presence of β-D-2′-CH3-riboC were expanded to T-75 culture flask, freeze/thawed twice, and used as a virus stock of β-D-2′-CH3-riboC-resistant BVDV for further characterization.” left out
as §1
The effect of Intron A, alone or in combination with β-D-2′-CH3-riboC, on the wild type BVDV was further studied in the persistently infected MDBK cells. In one experimental setting, the virus titers were determined after 7 days (two passages) of single or double treatment with several inhibitor concentrations.

[7] = Bovine viral diarrhea virus isolates and strains, MDBK, BVDV strain I-N-dIns β-D-2′-CH3-riboC-R, ncp, 48 hours
[8] = Bovine viral diarrhea virus isolates and strains

NC(=O)c1ncn([C@@H]2O[C@H](CO)[C@@H](O)[C@H]2O)n1 [Ribavirin, 1-β-D-ribofuranosyl-1-1,2,4-triazole-3-carboxamide]
serum amino transferase levels reduced to normal, share of patients [1]: 40%

CC1(O)C(O)[C@@H](CO)O[C@H]1n1ccc(N)nc1=O (stereo partly drawn) [β-D-2′-CH3-riboC]
EC4 log ([2]; BVDV strain I-N-dIns, ncp, concentration reducing viral titer by 99.99%, 48 hours): 7.14±1.26 μM | EC50 ([2]; Bovine viral diarrhea virus isolates and strains, MDBK, BVDV strain I-N-dIns, ncp, concentration reducing viral titer by 50%, 48 hours): 590 ± 120 nM | virus titers ([2]; at 16 μM, wild type virus, below the detection limit): < 10 FFU/mL | EC4 log ([3]; BVDV strain I-N-dIns β-D-2′-CH3-riboC-R, ncp, 48 hours): >32 μM | EC50 [3, 7]: > 32000 nM | EC90 [3, 7]: > 32000 nM | fold more resistant to the inhibitor than the wild type virus ([3]; based on the EC50 values of the virus yield reduction assay): at least 54 fold | effect on the resistant virus yield ([3]; highest concentration tested (32 μM)): no effect | EC50 [4, 8]: 680 ± 80 nM | EC90 [4, 8]: 1730 ± 110 nM | EC4 log [4]: 8.22 ± 0.05 μM | virus titer plateau after reappearance of virus ([5]; additional passaging in the presence of the inhibitor (virus reappeared at passage 3 to 5)): 10^5 FFU/mL | virus detection in culture ([5]; after two passages): no longer detectable | difference in virus titers versus untreated culture ([5]; observed even after 28 days of treatment): ~10 fold | log value of the BVDV titer ([6]; 2 μM β-D-2′-CH3-riboC, 7 days (two passages)): 5.10 log | log value of the BVDV titer ([6]; 4 μM β-D-2′-CH3-riboC, 7 days (two passages)): 4.55 log | reduction of virus titer ([6]; 8 μM β-D-2′-CH3-riboC alone, 7 days (two passages)): 6.2 logs | log value of the BVDV titer ([6]; 8 μM β-D-2′-CH3-riboC, 7 days (two passages)): 0.40 log | reduction of viral titers ([6]; 2 μM β-D-2′-CH3-riboC): 1.61 logs | reduction of viral titers ([6]; 4 μM β-D-2′-CH3-riboC): 2.06 logs
